# Reference: patent US20080171070A1, “Polyelectrolyte Multilayer Film, Preparation And Uses Thereof” (priority 2005, published 2008)
# Key:
# [1] = system: human macrophages; details: cited from earlier work
# [2] = FTIR spectroscopy in transmission mode, amide-I spectra of protein A with polypeptides; format: physicochemical; details: protein A with PlL and/or PdL, 1 mg mL^−1 each, D2O, 0.15M NaCl
# Protocol: FTIR Spectroscopy in transmission mode. Transmission spectra were measured on an EQUINOX 55 spectrophotometer (Bruker, Wissembourg, France) using a DTGS detector. Solutions were flown into a sample cell holder (SPECAC P/N 20510). Transmission spectra were measured by using CaF2 windows. Single channel spectra from 128 interferograms were calculated between 4000 and 400 cm^−1 with 2 cm^−1 resolution, using Blackman-Harris three-term apodization and Mertz phase correction with the standard Bruker OPUS/IR software (Version 3.0.4). Each sample (aqueous solution of polypeptide or protein A or both) was prepared at a concentration of 1 mg mL^−1 of each component, in a D2O, 0.15M NaCl (purchased from Prolabo) solution.
# [3] = system: cells; details: replacement of PlL by PdL in the film; cited from earlier work
# [4] = system: macrophages; experiment: Confocal laser scanning microscopy of films in contact with cells (film degradation, contact with embedded protein A); format: cell-based, human; details: protein A embedded under 20 pairs of (PlGA/PlL) layers
# Protocol: Confocal laser scanning microscopy. For the confocal laser scanning microscopy (CLSM) based investigations, the films were imaged in liquid conditions. CLSM observations were carried out with a Zeiss LSM 510 microscope using a ×40/1.4 oil immersion objective and with 0.4 μm z-section intervals. FITC fluorescence was detected after excitation at 488 nm, cutoff dichroic mirror 488 nm, and emission band pass filter 505-530 nm (green). Virtual vertical sections can be visualized, allowing the thickness of the film to be determined.
# In previous experiments, the inventors could visualize the pseudopods developing through the multilayer down to the protein A layer.^[19] […] The progressive degradation of the (PlGA/PlL)n film as a function of contact time with the cells is visualized in FIGS. 2a-2c.
# The inventors have seen that the film thickness depends upon the d/l ratio of the build-up polyelectrolyte solutions and in particular that it decreases when x increases from 0 up to 50%. On the other hand, for a given number of deposited pairs of layers, the biological activity decreases when x increases. The variations of the biological effects can thus not be attributed to changes of the film thickness with x. The biological effects can rather be explained by a continuous degradation and pseudopod development through the multilayered films^[19] as already found on (PlL/PlGA)n films. […]
# [5] = system: human macrophages; experiment: Stimulation assay: TNF-α production (ELISA) by macrophages seeded on PA-containing polyelectrolyte multilayers; format: cell-based
# Excerpt: Cell Culture. Whole blood samples were purchased at the “Etablissement Français du Sang” (EFS, Strasbourg, France). Peripheral mononuclear blood cells (PBMC) from healthy individuals, seronegative for […] and hepatitis B and C were isolated from buffy coat by Ficoll/Hypaque centrifugation and were washed twice in phosphate-buffered saline without Ca^2+/Mg^2+. Monocytes were isolated from whole-blood and separated by counter-current centrifugal elutriation of the peripheral mononuclear cells.^[40] Purity was measured by flow cytometry staining with fluorochrome antibodies (Becton Dickinson, PharMingen, San Diego, Calif.) to CD3 (T cells), CD19 (B cells), CD14 (monocytes) and CD45 (leukocytes). Monocytes were diluted at 1.5×10^6 cells mL^−1 in AIM lymphocytes SVF free medium with Glutamax, 100 U mL^−1 GM-CSF (PeproTech, Rocky Hill, USA). Culture medium was changed after 3 days of culture, and at day 5 macrophages were washed twice with RPMI at 37° C.
# Polyelectrolyte multilayered film preparation. Polyelectrolyte multilayers were always prepared on glass coverslips (CML, France) pretreated for 15 min at 100° C. with 10^−2 M SDS and 0.12 N HCl, and then extensively rinsed with deionised water. Glass coverslips were deposited in 24-well plates (Nunc, Denmark). All the solutions (polyelectrolyte, PA and rinsing) used for the film constructions contained 0.15 M NaCl with a pH adjusted to 7.4. At this pH both polylysine and polyglutamic acid are almost fully charged, be they l or d enantiomers so that they should not form stereocomplexes in solution. The films were constructed with polyelectrolyte (resp. PA) solutions at 1 mg·mL^−1 (resp. 200 μg·mL^−1) of polyelectrolytes (resp. PA). The film construction was performed as follows: First a precursor film constituted by (PlL/PlGA)5-PlL was built. In each deposition step, the surface is brought in contact with the polyelectrolyte solution for 20 mins followed by another contact with the rinsing solution for 5 mins. This rinsing step is repeated 3 times before adsorption of the polyelectrolyte of opposite charge. After the buildup of the precursor film, PA was adsorbed on the positively charged PlL terminating the precursor film during an overnight contact with PA solution. This film was then rinsed and the additional (PL/PGA)n-PL film was built by using PL and PGA solutions containing (x/100) mg·mL^−1 of PdL (resp. PdGA) and (1-x/100) mg·mL^−1 of PlL (resp. PlGA). All the films were then sterilized for 10 mins by ultraviolet light (254 nm). Before use, the architectures were put in contact with 1 mL of RPMI without serum during 24 h. It is possible that when the films are brought in contact with the culture medium, their structure and thickness change, the structure of the multilayers being dependent on many different physico-chemical parameters.^[41-43] However, such changes cannot explain the different biological effects that are observed in this study. […] One can also notice that the films were built at room temperature whereas the experiments with cells were realized at 37° C.
# Stimulation assays. Stimulation assays involving polyelectrolyte films were conducted by seeding 5×10^5 cells (macrophages) onto the PA-containing polyelectrolyte multilayers prepared on glass coverslips and placed into the wells of 24-well plates. TNF-α production by cells was measured by ELISA. TNF-α levels were detected by an enzyme immunoassay (Endogen Products, Woburn, Mass.). All experiments were repeated twice and were performed at 37° C.
# For multilayer films containing embedded PA, the proteins were always adsorbed on a (PlL/PlGA)5-PlL precursor film in order to keep the adsorption process (in particular the amount of adsorbed proteins) unaffected by the d/l composition of the film. The multilayer with a given d/l composition was then further deposited on top of the (PlL/PlGA)5-PlL-PA architecture and is constituted by n additional pairs of layers. […]
substance,measurement,setting,value
"PA: Staphylococcus aureus protein A, MW=42,000 Da, from Sigma; embedded in the multilayer films as model active ingredient",Cytokine expression on PA stimulation,[1],rapid expression of both the pro-inflammatory cytokine TNF-α and the anti-inflammatory cytokine IL-10
same,Effect of polypeptide interaction on secondary structure of protein A (amide-I spectra),[2],do not affect the secondary structure of protein A
same,Cellular communication with embedded PA,[3],prevents cellular communication with embedded PA
same,Contact of macrophages with embedded protein A (CLSM),[4],come into contact with protein A
same,TNF-α production (biological activity),"[5]; d content between 10 and 20%, all embedding depths up to n=20, after 4 hours of contact",full activity
same,TNF-α production (biological activity),"[5]; d content between 10 and 20%, embedding depth exceeds 15 pairs of layers, after 4 hours of contact",reaches its full activity
same,TNF-α production (biological response),"[5]; d content between 10 and 20%, embedding depth exceeds 15 pairs of layers, initial 3 hours of contact",no biological response
same,"TNF-α production (biological activity), time course","[5]; d content between 10 and 20%, embedding depths up to 5 pairs of layers","increases continuously in time, the plateau value being reached after 4 hours of contact"
same,TNF-α production (cellular response),"[5]; n=0: PA adsorbed on top of the film, direct contact with cells, lasts at least up to 6 hours",rapid cellular response is observed already after one hour of contact
same,TNF-α production (biological activity),"[5]; x between 30 and 40%, PA embedded under 1 layer pair",gradually increases after 2 hours of contact
same,TNF-α production (biological activity),"[5]; x between 30 and 40%, embedded under 5 pairs of layers, after 6 hours of contact",fully active
same,TNF-α production (biological activity),"[5]; x between 30 and 40%, embedded under 5 pairs of layers, first 4 hours",totally suppressed
same,TNF-α production (biological activity),"[5]; x between 30 and 40%, embedded under 15 pairs of layers or more, first 6 hours of contact",no longer acts on cells
same,TNF-α production (biological activity),"[5]; x equals 50% or more of d enantiomer, PA embedded under a (PL/PGA/PL) trilayer",totally suppressed
